Experimental data as given in patent US8193235B2, “Compositions and methods for establishing and maintaining stem cells in an undifferentiated state” (University of Kansas, priority 2009, dated 2012).

Columns and labels:
E14 ES cells [1] = assay: ES cell culture in the absence of LIF (undifferentiated state, marker expression); type: cell-based, mouse; details: mouse ES cells, without LIF
Method: (§1) E14 ES Cell Cultures. Cells were grown in ES-IMDM media (Lonza, Walkersville, Md.) in a feeder-free condition. ES-IMDM was supplemented with 15% serum, 10^5 U/100 ml of LIF (ESGRO, Millipore, Calif.) and 0.0124% monothioglycerol (MTG; Sigma Aldrich). Cells were grown for 3-5 days with change of medium every day. For inducing differentiation in monolayer culture and to determine the effect of Gö6983 in preventing differentiation, E14 cells were cultured on gelatin-coated plastics for 8 days without LIF. Details of experiments performed at clonal-density are described herein. To maintain E14 cells with Gö6983, serum supplemented ES-IMDM was used in the presence of 5 μM Gö6983 and was passed after every 3-5 days. For all assays involving elucidation of different signaling mechanism responsible for maintenance of pluripotency, cells from a ˜70% confluent ES culture plate were washed two times with 1× phosphate-buffered saline (PBS), trypsinized and plated on a 6-well tissue culture plate and treated with or without LIF or Gö6983 or different inhibitors for ˜10 hours followed by preparation of protein lysates and RNA. The PKCζ knocked-down E14 cells that were generated in this study were maintained in serum supplemented ES-IMDM on gelatin-coated plates in the absence of Gö6983 or LIF or any other inhibitor and passed after 3-5 days. For the experiments herein, cells were continuously cultured at least for 5 consecutive passages (>18 days) on gelatin-coated plates without significant differentiation.
Quantitative RT-PCR Analysis. RNA was extracted from different cell samples with TRIZOL reagent (Invitrogen). cDNA was prepared by annealing RNA (1 μg) with 250 ng of a 5:1 mixture of random and oligo(dT) primers heated at 68° C. for 10 minutes. This was followed by incubation with Moloney murine leukemia virus reverse transcriptase (50 units) (Invitrogen, Carlsbad, Calif.) combined with 10 mM DTT, RNasin (PROMEGA, Madison, Wis.), and 0.5 mM dNTPs at 42° C. for 1 hour. Reactions were diluted to a final volume of 100 μl and heat inactivated at 97° C. for 5 minutes. Twenty μl PCR reactions contained 2 μl cDNA, 10 μl SYBR Green Master Mix (Applied Biosystems, Foster City, Calif.) and corresponding primer sets. Relative expression levels were determined from a standard curve of serial dilutions of proliferating ES cell cDNA samples and were normalized to the expression of glyceraldehyde-3-phosphate dehydrogenase (GAPDH). At least three independent experiments were done for each set of data.
Immunostaining. Immunostaining of Oct4, and Nanog expression was performed using standard protocols. Briefly, ES cells were fixed in 4% paraformaldehyde/4% sucrose, permeabilized with 0.1% TRITON X 100 (Sigma). Cells were blocked by adding 1% fish gelatin (Sigma, St. Louis, Mo.) and incubated overnight at 4° C. with 200 μl of primary antibodies. Fluorescent-conjugated secondary antibodies (ALEXA FLUOR 488, and ALEXA FLUOR 568, Molecular Probes, Invitrogen) were used at 1:250 dilutions to visualize cells. Images were captured using a LEICA fluorescence microscope.

PKC β = tested on: PKC β; design: key: X^1: PKC β1; X^2: PKC β2; details: X = isoform inhibited; superscript 1 PKC β1, 2 PKC β2; cited from earlier work
c-Myc = assay: GSK-3β-mediated phosphorylation of c-Myc at T58; type: cell-based, mouse; details: added in Gö6983 culture condition
ERK1/2 = ERK1/2 phosphorylation in ES cells; type: cell-based, mouse; details: combination of Gö6983 and PD0325901
Method: as §1, with “For the experiments herein, cells were continuously cultured at least for 5 consecutive passages (>18 days) on gelatin-coated plates without significant differentiation.” left out

p90Rsk1 (Rsk1) = assay: Phosphorylation of p90Rsk1; type: cell-based, mouse; details: added to Gö6983-treated cells
Method: Western Blot Analysis. Whole cell lysates were prepared in SDS-gel loading buffer and resolved by 10% PAGE. The antibodies used for this study included β-actin Clone AC-15 from Sigma; p-STAT3 (Tyr705), p-p44/42 MAPK (tyr202/tyr204), p44/42 MAPK, GSK3β, Phospho Akt (Ser473), Akt, p-NFκβ p65 (Ser536), c-Myc, p-c-Myc (Thr58/Ser62), p-p90RSK (Thr359/Ser363), RSK1, Suz12 (D39F6), and Ezh2 (AC22) from Cell Signaling Technology; STAT3 (C-20), Oct-4 (C-10), Nanog (M-149), PKC α (C-20), PKC βI (C-16), PKC βII (C-18), PKC γ (C-19), PKC δ (C-20), PKC ζ (c-20), p-PKC ζ (Thr 410)-R, p-NFκβ p65 (ser311), and RelA (p65) from Santa Cruz Biotechnology; p-LGL1/LGL2 (S650/S654), SSEA4and H3K4Me3 from Abcam; LGL2 (M06), clone 4G2 from Abnova; β-Catenin from BD Transduction Laboratories, and H3K27Me3 and H3K9Me3 from Millipore.

E14 ES cells [2] = assay: ES cell differentiation on collagen IV and with retinoic acid; type: cell-based, mouse; details: absence of LIF
From the text: ES Cell Differentiation on Collagen-IV and With Retinoic Acid. To differentiate ES cells in monolayer culture on collagen IV, around 3×10^4 cells per well were transferred to collagen IV-coated 6-well plates (BD Biosciences, Franklin Lakes, N.J.) cultured for 5 days in ES differentiation medium containing DMEM (Invitrogen), 15% FBS (selected for endothelial differentiation, Stem Cell Technologies, Vancouver, BC), sodium pyruvate and L-glutamine with or without LIF and Gö6983, and were recovered by cell dissociation buffer (BD Biosciences, Franklin Lakes, N.J.). For culturing multiple passages with Gö6983 on collagen-IV, the recovered cells were again plated at a density of ˜3×10^4 cells per well and cultured again for 5 days. […] For RA-induced differentiation on monolayer culture, ES cells were treated with all-trans-retinoic acid (Sigma, St. Louis, Mo.) in ethanol at a concentration of 1 μM with or without LIF and Gö6983 for 6 days followed by study of expression of pluripotency markers (by immunofluorescence or western blot or RT-PCR analysis).

mESCs = assay: Gö6983-mediated inhibition of mESC differentiation in presence of pathway inhibitors; type: cell-based, mouse; details: added to Gö6983 culture
Method: Inhibitors. Gö6983 was purchased from three different companies (Sigma, St. Louis, Mo.; EMD Chemicals Inc.; and Tocris Biosciences) for validation. In all experiments except the concentration profile, Gö6983 was used at 5 μM final concentration. […] Rottlerin (0.1-5 μM), and RO-318425 (0.1-5 μM) were purchased from EMD Chemicals. Jak Inhibitor I (10 μM), PD0325901 (1 μM) and AKT inhibitor IX (10 μM) were from Calbiochem and CHIR99021 (3 μM) was purchased from Stemgent.
E14 ES Cell Cultures. Cells were grown in ES-IMDM media (Lonza, Walkersville, Md.) in a feeder-free condition. ES-IMDM was supplemented with 15% serum, 10^5 U/100 ml of LIF (ESGRO, Millipore, Calif.) and 0.0124% monothioglycerol (MTG; Sigma Aldrich). Cells were grown for 3-5 days with change of medium every day. For inducing differentiation in monolayer culture and to determine the effect of Gö6983 in preventing differentiation, E14 cells were cultured on gelatin-coated plastics for 8 days without LIF. Details of experiments performed at clonal-density are described herein. To maintain E14 cells with Gö6983, serum supplemented ES-IMDM was used in the presence of 5 μM Gö6983 and was passed after every 3-5 days. […]

Akt = Akt phosphorylation in mESCs; type: cell-based, mouse
Method: as §1, with “For the experiments herein, cells were continuously cultured at least for 5 consecutive passages (>18 days) on gelatin-coated plates without significant differentiation.” left out

In the case of CN(C)CCCn1cc(C2=C(c3c[nH]c4ccccc34)C(=O)NC2=O)c2ccccc21 [Bisindolylmaleimide I], the “ES cell differentiation in the absence of LIF” value (“ES cell differentiation” for short) (E14 ES cells [1]) is given as “able to inhibit ES cell differentiation, albeit at a lower efficiency than Gö6983” and the “Isoform Specificity β” value (PKC β) is given as “X^1”.

In the case of Cc1c[nH]c(-c2cnc(NCCNc3ccc(C#N)cn3)nc2-c2ccc(Cl)cc2Cl)n1 [CHIR99021], the c-Myc phosphorylation (c-Myc) is reported as “abolished”.

In the case of Cn1c2ccccc2c2c3c(c4c5ccccc5n(CCC#N)c4c21)CNC3=O [Gö6976], the “ES cell differentiation” value (E14 ES cells [1]) is listed as “could not prevent differentiation” and the “Isoform Specificity β” value (PKC β) is listed as “X^2”.

In the case of O=C(NOC[C@H](O)CO)c1ccc(F)c(F)c1Nc1ccc(I)cc1F [PD0325901], the ERK1/2 phosphorylation (ERK1/2) is reported as “almost completely inhibited” and the Rsk1 phosphorylation (p90Rsk1 (Rsk1)) is reported as “abolished”.

In the case of Cn1cc(C2=C(c3c4n(c5ccccc35)CCC(CN)C4)C(=O)NC2=O)c2ccccc21 (stereo not drawn) [Ro-31-8425], the “ES cell differentiation” value (E14 ES cells [1]) is reported as “could not prevent differentiation”.

For CC(=O)c1c(O)c(C)c(O)c(Cc2c(O)c3c(c(C(=O)/C=C/c4ccccc4)c2O)OC(C)(C)C=C3)c1O [Rottlerin], the “ES cell differentiation” value (E14 ES cells [1]) was “could not prevent differentiation”.

With N#CC(=C(/N)Sc1ccccc1N)/C(C#N)=C(/N)Sc1ccccc1N [U0216] the “differentiation of ES cells on collagen IV” value (E14 ES cells [2]) was “failed to block differentiation”.

For Jak-Inhibitor-I, the “effect of added inhibitor on Gö6983-mediated inhibition of mESC differentiation / maintenance of self-renewal” value (mESCs) was “ineffective”.

For “LIF: cytokine leukemia inhibitory factor, activates STAT3”, the Akt phosphorylation (Akt) was “induced”.
